Data taken from patent US20240376094A2, “SELECTIVE BCL-XL PROTAC COMPOUNDS AND METHODS OF USE” (Les Laboratoires Servier, priority 2021, published 2024).

Assays:
MOLT-4 cells = experiment: MOLT-4 cell viability, CTG assay; format: cell-based; conditions: Homo sapiens, MOLT-4, 48 h
Source text: The MTT colorimetric assay is based on the mitochondrial reduction of tetrazolium salt by living cells. The viable cell number is proportional to the production of formazan salts, which can be read spectrophotometrically at 540 nm. The CTG luminescent assay (CellTiter GLO, Promega) is based on a reagent which lyses cells and measures total adenosine triphosphate (ATP) content. The viable cell number is proportional to the production of ATP.
MOLT-4 cells were purchased from ATCC and cultivated in RPMI 1640 supplemented with 10% heat inactivated fetal bovine serum, penicillin (100 IU/mi), streptomycin (100 μg/ml) and L-glutamine (2 mM). Cells were cultured at 37° C. in a humidified atmosphere containing 5% […].
For CTG assay, cells were seeded in 384 microwell plates (40 μL per well) and exposed to the compounds for 48 h (11-point serial dilution with 5-fold factor, triplicates). At the end of incubation time, 40 μL of CTG solution were added per well. Wells were mixed thoroughly, and plates were incubated at room temperature for 10 minutes to stabilize luminescent signals prior to reading using a luminescence reader (PHERAStar FSX Reader, BMG Labtech).
IC50, were calculated using standard four-parametric curve fitting. IC50 is defined as the compound concentration at which the MTT or CTG signal is reduced to 50% of that measured for the control. Results shown in Table 14 represent the mean of at least 2 independent experiments.

Bcl-xL = biological target: T1, Bcl-xL (Homo sapiens, UniProt Q07817); experiment: HCT116 Bcl-xL degradation, capillary-based immunoassay (WES); format: cell-based; conditions: for DC50: HCT116, 24 h, 9-point serial dilution
T1 construct: Measured levels of Bcl-xL protein of HCT116 cells treated with the tested compounds; host or cells: HCT116
T1 sequence (Q07817 whole entry): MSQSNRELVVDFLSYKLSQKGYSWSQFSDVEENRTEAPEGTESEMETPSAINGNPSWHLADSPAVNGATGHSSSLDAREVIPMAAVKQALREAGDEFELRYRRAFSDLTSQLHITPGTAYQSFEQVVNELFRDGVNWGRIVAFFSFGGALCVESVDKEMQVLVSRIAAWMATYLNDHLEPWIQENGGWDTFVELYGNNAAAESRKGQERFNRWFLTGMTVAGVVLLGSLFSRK
Procedure: HCT116 cells were purchased from ATCC and cultivated in RPMI 1640 supplemented with 10% heat inactivated fetal bovine serum, penicillin (100 IU/mi), streptomycin (100 μg/ml) and L-glutamine (2 mM). Cells were cultured at 37° C. in a humidified atmosphere containing 5% CO2. Cells were seeded in 96 microwell plates, 24 h later cells were treated with compounds (2-point 10/100 nM and/or 9-point serial dilution to determine DC50; quadruplicates) during 24 h and harvested in lysis buffer containing 10 mM Hepes (pH 7.5), 150 mM KCl, 5 mM MgCl2, 1 mM EDTA, 0.4% TritonX100, protease and phosphatase inhibitors cocktails (Calbiochem).
Protein concentration in the supernatants was determined using the Pierce BCA protein assay kit (Thermo Fisher Scientific). Lysates (1.5 μg/μL) were analyzed using an automated capillary electrophoresis WES system with 2-40 kDa Wes Separation Module (25 capillary cartridges, Proteinsimple), in accordance with the manufacturer's protocols. Antibodies against the following proteins were used: Bcl-xL (#2764, Cell Signaling Technology, 1:50) and cofilin (#5175, Cell Signaling Technology, 1:1000). Signals were detected with an HRP-conjugated secondary anti-rabbit antibody (#042-206, Proteinsimple) and were quantified using Compass software (version 4.0, Proteinsimple).
Bcl-xL level was calculated by normalizing Bcl-xL values to cofilin and expressed as a percentage of the normalized value of the untreated cells. DC50 were calculated using standard four-parametric curve fitting. DC50 is defined as the compound concentration at which Bcl-xL is reduced to 50% of that measured for the control. Measured levels of Bcl-xL protein of HCT116 cells treated with the tested compounds at 2-point 10 nM/100 nM and/or 9-point for DC50 determination are shown in Table 15.

SMILES | IC50 (MOLT-4 cells) [nM] | DC50 (Bcl-xL) [nM] | remaining activity at 0.01 µM (Bcl-xL; HCT-116, HCT116, 10 nM, 24 h, % of untreated cells) [%] | remaining activity at 0.1 µM (Bcl-xL; HCT-116, HCT116, 100 nM, 24 h, % of untreated cells) [%]
Cc1c(Nc2nc3ccccc3s2)nnc2c1CCCN2c1ccc(-c2cnn(CC34CC5(C)CC(C)(C3)CC(OCCN(C)CCCCCCCC(=O)N3CCC(c6ccc7c(c6)CN(C6CCC(=O)NC6=O)C7=O)CC3)(C5)C4)c2C)c(C(=O)O)n1 (centres unmarked) [Example 68, 6-[3-(1,3-benzothiazol-2-ylamino)-4-methyl-6,7-dihydro-5H-pyrido[2,3-c]pyridazin-8-yl]-3-[1-[[3-[2-[[8-[4-[2-(2,6-dioxo-3-piperidyl)-1-oxo-isoindolin-5-yl]-1-piperidyl]-8-oxo-octyl]-methyl-amino]ethoxy]-5,7-dimethyl-1-adamantyl]methyl]-5-methyl-pyrazol-4-yl]pyridine-2-carboxylic acid] | 15.3 | > 316 | – | –
Cc1c(Nc2nc3ccccc3s2)nnc2c1CCCN2c1ccc(-c2cnn(CC34CC5(C)CC(C)(C3)CC(OCCN(C)CCCCCCCCCCCC(=O)N3CCC(c6ccc7c(c6)CN(C6CCC(=O)NC6=O)C7=O)CC3)(C5)C4)c2C)c(C(=O)O)n1 (centres unmarked) [Example 69, 6-[3-(1,3-benzothiazol-2-ylamino)-4-methyl-6,7-dihydro-5H-pyrido[2,3-c]pyridazin-8-yl]-3-[1-[[3-[2-[[12-[4-[2-(2,6-dioxo-3-piperidyl)-1-oxo-isoindolin-5-yl]-1-piperidyl]-12-oxo-dodecyl]-methyl-amino]ethoxy]-5,7-dimethyl-1-adamantyl]methyl]-5-methyl-pyrazol-4-yl]pyridine-2-carboxylic acid] | 5.14 | 0.711 | – | –
Cc1c(Nc2nc3ccccc3s2)nnc2c1CCCN2c1ccc(-c2cnn(CC34CC5(C)CC(C)(C3)CC(OCCN(C)CCCCCCCCCC(=O)N3CCC(c6ccc7c(c6)CN(C6CCC(=O)NC6=O)C7=O)CC3)(C5)C4)c2C)c(C(=O)O)n1 (centres unmarked) [Example 70, 6-[3-(1,3-benzothiazol-2-ylamino)-4-methyl-6,7-dihydro-5H-pyrido[2,3-c]pyridazin-8-yl]-3-[1-[[3-[2-[[10-[4-[2-(2,6-dioxo-3-piperidyl)-1-oxo-isoindolin-5-yl]-1-piperidyl]-10-oxo-decyl]-methyl-amino]ethoxy]-5,7-dimethyl-1-adamantyl]methyl]-5-methyl-pyrazol-4-yl]pyridine-2-carboxylic acid] | 7.48 | – | 101 | 90
Cc1c(Nc2nc3ccccc3s2)nnc2c1CCCN2c1ccc(-c2cnn(CC34CC5(C)CC(C)(C3)CC(OCCN(C)CCCCCCCCCCC(=O)N3CCC(c6ccc7c(c6)CN(C6CCC(=O)NC6=O)C7=O)CC3)(C5)C4)c2C)c(C(=O)O)n1 (centres unmarked) [Example 75, 6-[3-(1,3-benzothiazol-2-ylamino)-4-methyl-6,7-dihydro-5H-pyrido[2,3-c]pyridazin-8-yl]-3-[1-[[3-[2-[[11-[4-[2-(2,6-dioxo-3-piperidyl)-1-oxo-isoindolin-5-yl]-1-piperidyl]-11-oxo-undecyl]-methyl-amino]ethoxy]-5,7-dimethyl-1-adamantyl]methyl]-5-methyl-pyrazol-4-yl]pyridine-2-carboxylic acid] | 5.85 | – | – | –
Cc1c(Nc2nc3ccccc3s2)nnc2c1CCCN2c1ccc(-c2cnn(CC34CC5(C)CC(C)(C3)CC(OCCN(C)CCCCCCCCCCCCC(=O)N3CCC(c6ccc7c(c6)CN(C6CCC(=O)NC6=O)C7=O)CC3)(C5)C4)c2C)c(C(=O)O)n1 (centres unmarked) [Example 78, 6-[3-(1,3-benzothiazol-2-ylamino)-4-methyl-6,7-dihydro-5H-pyrido[2,3-c]pyridazin-8-yl]-3-[1-[[3-[2-[[13-[4-[2-(2,6-dioxo-3-piperidyl)-1-oxo-isoindolin-5-yl]-1-piperidyl]-13-oxo-tridecyl]-methyl-amino]ethoxy]-5,7-dimethyl-1-adamantyl]methyl]-5-methyl-pyrazol-4-yl]pyridine-2-carboxylic acid] | 4.42 | 0.121 | – | –
CN[C@@H](C)C(=O)N[C@H](C(=O)N1CCC[C@H]1c1nc(C(=O)c2cccc(OCCCCN(C)CCOC34CC5(C)CC(C)(CC(Cn6ncc(-c7ccc(N8CCCc9c8nnc(Nc8nc%10ccccc%10s8)c9C)nc7C(=O)O)c6C)(C5)C3)C4)c2)cs1)C1CCCCC1 [Example 99, 6-[3-(1,3-benzothiazol-2-ylamino)-4-methyl-6,7-dihydro-5H-pyrido[2,3-c]pyridazin-8-yl]-3-[1-[[3-[2-[4-[3-[2-[(2S)-1-[(2S)-2-cyclohexyl-2-[[(2S)-2-(methylamino)propanoyl]amino]acetyl]pyrrolidin-2-yl]thiazole-4-carbonyl]phenoxy]butyl-methyl-amino]ethoxy]-5,7-dimethyl-1-adamantyl]methyl]-5-methyl-pyrazol-4-yl]pyridine-2-carboxylic acid] | 4.54 | – | – | –

Next, values leading:

IC50 (MOLT-4 cells) [nM] | DC50 (Bcl-xL) [nM] | remaining activity at 0.01 µM (Bcl-xL; HCT-116, HCT116, 10 nM, 24 h, % of untreated cells) [%] | remaining activity at 0.1 µM (Bcl-xL; HCT-116, HCT116, 100 nM, 24 h, % of untreated cells) [%] | SMILES
24.2 | > 316 | – | – | Cc1c(Nc2nc3ccccc3s2)nnc2c1CCCN2c1ccc(-c2cnn(CC34CC5(C)CC(C)(C3)CC(OCCN(C)CCCCCC(=O)N3CCC(c6ccc7c(c6)CN(C6CCC(=O)NC6=O)C7=O)CC3)(C5)C4)c2C)c(C(=O)O)n1 (centres unmarked) [Example 67, 6-[3-(1,3-benzothiazol-2-ylamino)-4-methyl-6,7-dihydro-5H-pyrido[2,3-c]pyridazin-8-yl]-3-[1-[[3-[2-[[6-[4-[2-(2,6-dioxo-3-piperidyl)-1-oxo-isoindolin-5-yl]-1-piperidyl]-6-oxo-hexyl]-methyl-amino]ethoxy]-5,7-dimethyl-1-adamantyl]methyl]-5-methyl-pyrazol-4-yl]pyridine-2-carboxylic acid]
10.2 | > 316 | – | – | Cc1c(Nc2nc3ccccc3s2)nnc2c1CCCN2c1ccc(-c2cnn(CC34CC5(C)CC(C)(C3)CC(OCCN(C)CCCCCCCCC(=O)N3CCC(c6ccc7c(c6)CN(C6CCC(=O)NC6=O)C7=O)CC3)(C5)C4)c2C)c(C(=O)O)n1 (centres unmarked) [Example 71, 6-[3-(1,3-benzothiazol-2-ylamino)-4-methyl-6,7-dihydro-5H-pyrido[2,3-c]pyridazin-8-yl]-3-[1-[[3-[2-[[9-[4-[2-(2,6-dioxo-3-piperidyl)-1-oxo-isoindolin-5-yl]-1-piperidyl]-9-oxo-nonyl]-methyl-amino]ethoxy]-5,7-dimethyl-1-adamantyl]methyl]-5-methyl-pyrazol-4-yl]pyridine-2-carboxylic acid]
– | 0.133 | – | – | Cc1c(Nc2nc3ccccc3s2)nnc2c1CCCN2c1ccc(-c2cnn(CC34CC5(C)CC(C)(C3)CC(OCCN(C)CCCCCCCCCCCCCCCC(=O)N3CCC(c6ccc7c(c6)CN(C6CCC(=O)NC6=O)C7=O)CC3)(C5)C4)c2C)c(C(=O)O)n1 (centres unmarked) [Example 74, 6-[3-(1,3-benzothiazol-2-ylamino)-4-methyl-6,7-dihydro-5H-pyrido[2,3-c]pyridazin-8-yl]-3-[1-[[3-[2-[[16-[4-[2-(2,6-dioxo-3-piperidyl)-1-oxo-isoindolin-5-yl]-1-piperidyl]-16-oxo-hexadecyl]-methyl-amino]ethoxy]-5,7-dimethyl-1-adamantyl]methyl]-5-methyl-pyrazol-4-yl]pyridine-2-carboxylic acid]
8.41 | – | – | – | CN[C@@H](C)C(=O)N[C@H](C(=O)N1CCC[C@H]1c1nc(C(=O)c2cccc(OCCCCCCCCCCCCCCN(C)CCOC34CC5(C)CC(C)(CC(Cn6ncc(-c7ccc(N8CCCc9c8nnc(Nc8nc%10ccccc%10s8)c9C)nc7C(=O)O)c6C)(C5)C3)C4)c2)cs1)C1CCCCC1 [Example 100, 6-[3-(1,3-benzothiazol-2-ylamino)-4-methyl-6,7-dihydro-5H-pyrido[2,3-c]pyridazin-8-yl]-3-[1-[[3-[2-[14-[3-[2-[(2S)-1-[(2S)-2-cyclohexyl-2-[[(2S)-2-(methylamino)propanoyl]amino]acetyl]pyrrolidin-2-yl]thiazole-4-carbonyl]phenoxy]tetradecyl-methyl-amino]ethoxy]-5,7-dimethyl-1-adamantyl]methyl]-5-methyl-pyrazol-4-yl]pyridine-2-carboxylic acid]
